Assay results reported in patent US20100137313A1 (ASTRAZENECA AB, priority 2008, published 2010).

Target: S. pneumoniae Topoisomerase IV ATPase (ParE) (Streptococcus pneumoniae serotype 4, UniProt Q59961)
Test: S. pneumoniae Topoisomerase IV ATPase inhibition
Format: biochemical
Conditions: values marked * are an average of two or more data points; for inhibition at 13 µM: read-out: % Inh (13 μM) of S. pneumoniae Topoisomerase IV ATPase
Summary of the method: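 Malachite green/ammonium molybdate phosphate detection, A650. 1.25 nM ParE, 160 μM ATP, sheared salmon sperm DNA 5 μg/ml, 20 mM Tris pH 8.0, 8.0 mM MgCl2. Controls: 2% DMSO = 0%, 20 μM EDTA = 100% inhibition; IC50 over 10 concentrations.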

Sequence of S. pneumoniae Topoisomerase IV ATPase (ParE) (Q59961 whole entry): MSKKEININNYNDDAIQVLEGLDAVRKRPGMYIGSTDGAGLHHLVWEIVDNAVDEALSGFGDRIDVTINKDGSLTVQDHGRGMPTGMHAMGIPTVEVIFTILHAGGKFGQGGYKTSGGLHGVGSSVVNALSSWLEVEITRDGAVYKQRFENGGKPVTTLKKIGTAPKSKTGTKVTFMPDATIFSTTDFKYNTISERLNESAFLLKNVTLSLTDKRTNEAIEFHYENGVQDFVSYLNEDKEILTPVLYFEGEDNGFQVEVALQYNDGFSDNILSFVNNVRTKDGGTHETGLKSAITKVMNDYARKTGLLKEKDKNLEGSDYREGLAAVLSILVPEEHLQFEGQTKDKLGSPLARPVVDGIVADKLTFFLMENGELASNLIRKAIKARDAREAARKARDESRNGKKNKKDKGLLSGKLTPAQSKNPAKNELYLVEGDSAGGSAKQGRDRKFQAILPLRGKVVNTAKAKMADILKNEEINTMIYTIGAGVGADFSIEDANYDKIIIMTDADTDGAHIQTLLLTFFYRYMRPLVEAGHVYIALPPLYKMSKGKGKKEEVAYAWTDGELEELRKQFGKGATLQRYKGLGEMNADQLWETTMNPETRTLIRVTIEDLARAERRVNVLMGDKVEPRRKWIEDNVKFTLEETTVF

SMILES	inhibition at 13 µM	% Inh (13 μM) of S. pneumoniae Topoisomerase IV ATPase
CONC(=O)c1cncc(-c2cnc(Nc3ccc(F)c(Cl)c3)nc2-n2ccc(NC(C)=O)n2)c1 [Example 549, 5-{4-[3-(acetylamino)-1H-pyrazol-1-yl]-2-[(3-chloro-4-fluorophenyl)amino]-pyrimidin-5-yl}-N-methoxypyridine-3-carboxamide]	94%	–
CONC(=O)c1cncc(-c2cnc(Nc3ccc(F)c(Cl)c3)nc2-n2cc(-c3ccccn3)cn2)c1 [Example 550, 5-{2-[(3-chloro-4-fluorophenyl)amino]-4-[4-(pyridin-2-yl)-1H-pyrazol-1-yl]pyrimidin-5-yl}-N-methoxypyridine-3-carboxamide]	100%	–
CONC(=O)c1cncc(-c2cnc(Nc3ccc(F)c(Cl)c3)nc2-n2cc(-c3ccncn3)cn2)c1 [Example 551, 5-{2-[(3-chloro-4-fluorophenyl)amino]-4-[4-(pyrimidin-4-yl)-1H-pyrazol-1-yl]pyrimidin-5-yl}-N-methoxypyridine-3-carboxamide]	100%	–
Cc1cc(-c2nccs2)nn1-c1nc(Nc2ccc(F)c(Cl)c2)ncc1-c1cccc(/C=C/C(=O)O)c1 [Example 562, (2E)-3-(3-{2-[(3-chloro-4-fluorophenyl)amino]-4-[5-methyl-3-(1,3-thiazol-2-yl)-1H-pyrazol-1-yl]pyrimidin-5-yl}phenyl)prop-2-enoic acid]	100%	–
Cc1cc(C(F)F)nn1-c1nc(Nc2ccc(F)c(Cl)c2)ncc1-c1cccc(/C=C/C(=O)O)c1 [Example 563, (2E)-3-(3-{2-[(3-chloro-4-fluorophenyl)amino]-4-[3-(difluoromethyl)-5-methyl-1H-pyrazol-1-yl]pyrimidin-5-yl}phenyl)prop-2-enoic acid]	100%	–
O=C(O)/C=C/c1cccc(-c2cnc(Nc3ccc(F)c(Cl)c3)nc2-n2nc(C(F)F)cc2C(F)F)c1 [Example 564, (2E)-3-(3-{4-[3,5-bis(difluoromethyl)-1H-pyrazol-1-yl]-2-[(3-chloro-4-fluorophenyl)amino]pyrimidin-5-yl}phenyl)prop-2-enoic acid]	92%	–
O=C(O)/C=C/c1cccc(-c2cnc(Nc3ccc(F)c(Cl)c3)nc2-n2ccc(-c3ccsc3)n2)c1 [Example 565, (2E)-3-(3-{2-[(3-chloro-4-fluorophenyl)amino]-4-[3-(thiophen-3-yl)-1H-pyrazol-1-yl]pyrimidin-5-yl}phenyl)prop-2-enoic acid]	100%	–
CC(=O)Nc1ccn(-c2nc(Nc3ccc(F)c(Cl)c3)ncc2-c2cccc(/C=C/C(=O)O)c2)n1 [Example 566, (2E)-3-(3-{4-[3-(acetylamino)-1H-pyrazol-1-yl]-2-[(3-chloro-4-fluorophenyl)amino]pyrimidin-5-yl}phenyl)prop-2-enoic acid]	52%	–
O=C(O)/C=C/c1cccc(-c2cnc(Nc3ccc(F)c(Cl)c3)nc2-n2cc(-c3ccccn3)cn2)c1 [Example 567, (2E)-3-(3-{2-[(3-chloro-4-fluorophenyl)amino]-4-[4-(pyridin-2-yl)-1H-pyrazol-1-yl]pyrimidin-5-yl}phenyl)prop-2-enoic acid]	100%	–
O=C(O)/C=C/c1cccc(-c2cnc(Nc3ccc(F)c(Cl)c3)nc2-n2cc(-c3ccncn3)cn2)c1 [Example 568, (2E)-3-(3-{2-[(3-chloro-4-fluorophenyl)amino]-4-[4-(pyrimidin-4-yl)-1H-pyrazol-1-yl]pyrimidin-5-yl}phenyl)prop-2-enoic acid]	100%	–
O=C(O)c1cccc(-c2cnc(Nc3ccc(F)c(Cl)c3)nc2-n2ccc(C(F)(F)F)n2)c1 [Example 570, 3-(2-(3-chloro-4-fluorophenylamino)-4-(3-(trifluoromethyl)-1H-pyrazol-1-yl)pyrimidin-5-yl)benzoic acid]	91%	–
CC1(C)[C@@H](C(=O)O)[C@@H]1c1cccc(-c2cnc(Nc3ccc(F)cc3)nc2-n2ccc(C(F)(F)F)n2)c1 [Example 571, (1,3-trans)-3-(3-(2-(4-fluorophenylamino)-4-(3-(trifluoromethyl)-1H-pyrazol-1-yl)pyrimidin-5-yl)phenyl)-2,2-dimethylcyclopropanecarboxylic acid]	17%	–
CC1(C)[C@@H](C(=O)O)[C@@H]1c1cccc(-c2cnc(Nc3ccc(F)c(Cl)c3)nc2-n2ccc(C(F)(F)F)n2)c1 [Example 572, (1,3-trans)-3-(3-(2-(3-chloro-4-fluorophenylamino)-4-(3-(trifluoromethyl)-1H-pyrazol-1-yl)pyrimidin-5-yl)phenyl)-2,2-dimethylcyclopropanecarboxylic acid]	100%	–
O=C(O)[C@@H]1C[C@H]1c1cncc(-c2cnc(Nc3ccc(F)c(Cl)c3)nc2-n2ccc(C(F)(F)F)n2)c1 [Example 573, (1,2-trans)-2-(5-(2-(3-chloro-4-fluorophenvlamino)-4-(3-(trifluoromethyl)-1H-pyrazol-1-yl)pyrimidin-5-yl)pyridin-3-yl)cyclopropanecarboxylic acid]	100%	–
O=C(O)[C@@H]1C[C@H]1c1cccc(-c2cnc(Nc3ccc(F)c(Cl)c3)nc2-n2ccc(C(F)(F)F)n2)c1 [Example 575, (1R,2R)-2-(3-(2-(3-chloro-4-fluorophenvlamino)-4-(3-(trifluoromethyl)-1H-pyrazol-1-yl)pyrimidin-5-yl)phenyl)cyclopropanecarboxylic acid]	–	100%
O=C(O)[C@H]1C[C@H]1c1cccc(-c2cnc(Nc3ccc(F)c(Cl)c3)nc2-n2ccc(C(F)(F)F)n2)c1 [Example 576, (1S,2R)-2-(3-(2-(3-chloro-4-fluorophenvlamino)-4-(3-(trifluoromethyl)-1H-pyrazol-1-yl)pyrimidin-5-yl)phenyl)cyclopropanecarboxylic acid]	–	100%
COc1cc(Nc2ncc(-c3cnc(NCCS(C)(=O)=O)c(C(=O)O)c3)c(-n3ccc(C(F)(F)F)n3)n2)cc(OC)c1 [Example 585, 5-(2-(3,5-dimethoxyphenylamino)-4-(3-(trifluoromethyl)-1H-pyrazol-1-yl)pyrimidin-5-yl)-2-(2-(methylsulfonyl)ethylamino)nicotinic acid]	100%	–
CNc1ncc(-c2cnc(Nc3cc(OC)cc(OC)c3)nc2-n2ccc(C(F)(F)F)n2)cc1C(=O)O [Example 586, 5-(2-(3,5-dimethoxyphenylamino)-4-(3-(trifluoromethyl)-1H-pyrazol-1-yl)pyrimidin-5-yl)-2-(methylamino)nicotinic acid]	100%	–
COc1cc(Nc2ncc(-c3cnc(N(C)C)c(C(=O)O)c3)c(-n3ccc(C(F)(F)F)n3)n2)cc(OC)c1 [Example 587, 5-(2-(3,5-dimethoxyphenylamino)-4-(3-(trifluoromethyl)-1H-pyrazol-1-yl)pyrimidin-5-yl)-2-(dimethylamino)nicotinic acid]	100%	–
COc1cc(Nc2ncc(-c3cnc(-n4cncn4)c(C(=O)O)c3)c(-n3ccc(C(F)(F)F)n3)n2)cc(OC)c1 [Example 588, 5-(2-(3,5-dimethoxyphenylamino)-4-(3-(trifluoromethyl)-1H-pyrazol-1-yl)pyrimidin-5-yl)-2-(1H-1,2,4-triazol-1-yl)nicotinic acid]	100%	–
COc1cc(Nc2ncc(-c3cnc(-n4cccn4)c(C(=O)O)c3)c(-n3ccc(C(F)(F)F)n3)n2)cc(OC)c1 [Example 589, 5-(2-(3,5-dimethoxyphenylamino)-4-(3-(trifluoromethyl)-1H-pyrazol-1-yl)pyrimidin-5-yl)-2-(1H-pyrazol-1-yl)nicotinic acid]	100%	–
